The values that follow come from US20030224978A1, “Compounds and methods for modulating apoptosis” (McGill University, priority 1996, published 2003).

In general, pIC50 refers to −log10 of the IC50, conventionally taken in molar units. Read a high pIC50 as a small IC50.

Data set [1] is described as follows: in vitro. The following applies: human. The data set is classed as cell-based. Here is the method: (§1) N-Ac-CHAVC-NH2 (SEQ ID NO:10) and the control peptide N-Ac-CHGVC-NH2 (SEQ ID NO:20) were evaluated for possible cytotoxic effects on human microvascular endothelial (HMVEC; Clonetics), human umbilical vein endothelial (HUVEC; ATCC #CRL-1730), IAFp2 (human fibroblast cell line; Institute Armand-Frapier, Montreal, Quebec), WI-38 (human fibroblast cell line; ATCC #CCL-75), MDA-MB231 (human breast cancer cell line; ATCC #HTB-26), and PC-3 (human prostate cancer cell line; ATCC #CRL-1435) cells utilizing the MTT assay (Plumb et al., Cancer Res. 49:4435-4440, 1989). Neither of the peptides was cytotoxic at concentrations up to and including 100 μM. Similarly, neither of the peptides was capable of inhibiting the proliferation of the above cell lines at concentrations up to 100 μM, as judged by ^3H-thymidine incorporation assays.

Data set [2] in a line: in vitro. The data set is classed as cell-based. The following applies: human. Here is the method: as §1
This is another data set of the same source.

Data set [3] relates to angiogenesis in chick embryonic chorioallantoic membranes. As to the kind of experiment: Chick chorioallantoic membrane angiogenesis assay. The following applies: 3, 17, and 33 μg/mesh. The data set is classed as in vivo. The protocol:
The chick chorioallantoic membrane assay was used to assess the effects of cyclic peptides on angiogenesis (Iruela-Arispe et al., Molecular Biology of the Cell 6:327-343, 1995). Cyclic peptides were embedded in a mesh composed of vitrogen at concentrations of 3, 17, and 33 μg/mesh. The meshes were then applied to 12-day-old chick embryonic chorioallantoic membranes. After 24 hours, the effects of the peptides on angiogenesis were assessed by computer assisted morphometric analysis.
For each concentration of cyclic peptide, the percent inhibition of angiogenesis (relative to the level of angiogenesis in the absence of cyclic peptide) is provided. Assays were performed in the presence (+) or absence (−) of […] VEGF. For example, the cyclic peptide N-Ac-CHAVC-NH2 (SEQ ID NO:10) inhibited angiogenesis by 46%, 51%, and 51% at concentrations of 3, 17, and 33 μg/mesh, respectively.

A short description of data set [4]: in vitro. Conditions: human. The data set is classed as cell-based. The protocol:
as §1
This is another data set of the same source.

Data set [5] can be described thus: in vitro. The data set is classed as cell-based. Conditions: human. Here is the method: as §1
The source holds these as a separate data set.

pIC50: −log10 of the molar value. Positions of bridges follow the written chain, without caps; N, C: chain ends. Residues, ends and D or L forms follow the SMILES beside them.

`CC(=O)N[C@H]1CSSC[C@@H](C(N)=O)NC(=O)[C@H](Cc2c[nH]cn2)NC(=O)[C@H](C)NC(=O)[C@H](C(C)C)NC1=O` [N-Ac-CVAHC-NH2] (Ac-CVAHC-NH2; disulfide 1-5 (inferred)): the pIC50 in “in vitro [1]”, in “in vitro [2]”, in the data set “in vitro [4]” and in “in vitro [5]” was below 4.00 each time. In data set [3], the “inhibition of angiogenesis, in words” value is “relatively inactive”.
